Results from patent publication US4383113A, “Agricultural sulfonamides” (E. I. Du Pont de Nemours and Company, priority 1981, dated 1983).

Tests used:
Assay in all cases: Test A pre-emergence
wild oats = assay type: in vivo, Avena fatua; design: key: 0 = no effect, 10 = maximum effect; letter = response symbol; details: 0.4 kg/ha
Procedure, shortened: (§1)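 Seeds and tubers were treated preemergence in a growth medium with compound in a nonphytotoxic solvent, against untreated controls; emerged plants such as two-leaf barnyardgrass and five-leaf cotton were sprayed postemergence, against solvent-sprayed controls. After sixteen days in a greenhouse, response was rated visually from 0 to 10.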

sorghum = assay type: in vivo; design: key: 0 = no effect, 10 = maximum effect; letter = response symbol
Procedure, shortened: as §1

rice = assay type: in vivo; design: key: 0 = no effect, 10 = maximum effect; letter = response symbol; details: 0.4 kg/ha
Procedure, shortened: as §1

soybean = assay type: in vivo; design: key: 0 = no effect, 10 = maximum effect; letter = response symbol
Procedure, shortened: as §1

wheat = assay type: in vivo; design: key: 0 = no effect, 10 = maximum effect; letter = response symbol; details: 0.4 kg/ha
Procedure, shortened: as §1

morningglory = assay type: in vivo, Ipomoea spp.; design: key: 0 = no effect, 10 = maximum effect; letter = response symbol
Procedure, shortened: as §1

cassia = assay type: in vivo, Cassia tora; design: key: 0 = no effect, 10 = maximum effect; letter = response symbol; details: 0.4 kg/ha
Procedure, shortened: as §1

crabgrass = assay type: in vivo, Digitaria spp.; design: key: 0 = no effect, 10 = maximum effect; letter = response symbol
Procedure, shortened: as §1

barnyardgrass = assay type: in vivo, Echinochloa crusgalli; design: key: 0 = no effect, 10 = maximum effect; letter = response symbol; details: 0.4 kg/ha
Procedure, shortened: as §1

cocklebur = assay type: in vivo, Xanthium spp.; design: key: 0 = no effect, 10 = maximum effect; letter = response symbol
Procedure, shortened: as §1

nutsedge = assay type: in vivo, Cyperus rotundus
Excerpt: The activity of these compounds was discovered in a number of greenhouse and field tests. The ratings are based on a numerical scale extending from 0=no effect, to 10=maximum effect. The accompanying descriptive symbols have the following meanings:
Seeds of crabgrass (Digitaria spp.), barnyardgrass (Echinochloa crusgalli), wild oats (Avena fatua), cassia (Cassia tora), morningglory (Ipomoea spp.), cocklebur (Xanthium spp.), sorghum, corn, soybean, rice, wheat and nutsedge tubers (Cyperus rotundus) were planted in a growth medium and treated preemergence with a nonphytotoxic solvent solution of the compounds of Table XII. Other batches of seeds and tubers for all of the foregoing weed and crop plants were planted at the same time as controls. The control plantings were untreated; i.e., neither any compound nor any solvent was applied. At the same time, cotton having five leaves (including cotyledonary ones), bush beans with the third trifoliate leaf expanding, crabgrass with two leaves, barnyardgrass with two leaves, wild oats with two leaves, cassia with three leaves (including cotyledonary ones), morningglory with four leaves (including the cotyledonary ones), cocklebur with four leaves (including the cotyledonary ones), sorghum with four leaves, corn with four leaves, soybean with two cotyledonary leaves, rice with three leaves, wheat with one leaf, and nutsedge with three-five leaves were sprayed with a nonphytotoxic solvent solution of the compounds of Table XII. Other groups of all the same weed and crop plants were sprayed with the same nonphytotoxic solvent so as to provide control plants. Preemergence and postemergence treated plants and controls were maintained in a greenhouse for sixteen days, then all treated plants were compared with their respective controls and rated visually for response to treatment.

corn = assay type: in vivo; design: key: 0 = no effect, 10 = maximum effect; letter = response symbol
Procedure, shortened: as §1

Row | Structure (SMILES) | response rating (wild oats) | response rating (sorghum; 0.4 kg/ha) | response rating (rice) | response rating (soybean; 0.4 kg/ha) | response rating (wheat) | response rating (morningglory; 0.4 kg/ha) | response rating (cassia) | response rating (crabgrass; 0.4 kg/ha) | response rating (barnyardgrass) | response rating (cocklebur; 0.4 kg/ha) | response rating (nutsedge; 0.4 kg/ha) | response rating (corn; 10 kg/ha) | response rating (sorghum; 10 kg/ha) [G] | response rating (soybean; 10 kg/ha) [G] | response rating (morningglory; 10 kg/ha) [G] | response rating (nutsedge; 10 kg/ha) [G] | response rating (cocklebur; 10 kg/ha) [G] | response rating (crabgrass; 10 kg/ha) [C] | response rating (corn; 0.4 kg/ha)
1 | COC(=O)c1cc(F)ccc1S(=O)(=O)NC(=O)Nc1nc(C)nc(OC)n1 [drawing 517] | 2G | 9G | 9H | 9H | 0 | 9G | 9G | 5G |  |  |  |  |  |  |  |  |  |  | 
2 | COC(=O)c1cc(Cl)c(Cl)cc1S(=O)(=O)NC(=O)Nc1nc(C)cc(OC)n1 [drawing 519] | 4G |  | 9H |  | 5G | 8G | 0 | 2G | 9G | 8G |  |  |  |  |  |  |  |  | 
3 | C=CCCC(C)OC(=O)c1ccccc1S(=O)(=O)NC(=O)Nc1nc(C)nc(OC)n1 (stereo not shown) [drawing 522] |  | 9H |  | 9H | 7G | 9G | 9G |  |  | 9G | 9G |  |  |  |  |  |  |  | 
4 | Cc1cc(C)nc(NC(=O)NS(=O)(=O)c2ccccc2C(=O)O)n1 [drawing 511] |  |  |  |  |  |  |  |  |  |  |  | 8 | 5 | 4 | 7 | 9 | 9 | 1 | 
5 | COC(=O)c1ccccc1S(=O)(=O)NC(=O)Nc1nc(OC)nc(OC)n1 [drawing 483] | 9G | 9G |  | 9H | 9G | 9G | 9G | 9H | 9H | 9G | 9G |  |  |  |  |  |  |  | 9G
6 | COC(=O)c1cc([N+](=O)[O-])ccc1S(=O)(=O)NC(=O)Nc1nc(C)cc(OC)n1 [drawing 529] |  |  | 9H | 9H | 9G | 9G | 9G |  |  | 9G |  |  |  |  |  |  |  |  | 
7 | CCCCCCCCCCCCNC(=O)c1ccccc1S(=O)(=O)NC(=O)Nc1nc(C)nc(OC)n1 [drawing 534] | 6G |  | 9H |  | 6G | 9G | 8G |  | 9H | 8G |  |  |  |  |  |  |  |  | 8G
8 | COc1nc(C)nc(NC(=O)NS(=O)(=O)c2ccccc2C(=O)Oc2ccccc2C)n1 |  |  |  | 9H |  | 9G | 9G |  | 9H | 9G | 8G |  |  |  |  |  |  |  | 
9 | COc1nc(NC(=O)NS(=O)(=O)c2ccccc2C(=O)OCCCl)nc(OC)n1 [drawing 489] | 8G | 9G | 9H | 9H | 5G | 9C |  | 4G |  | 9G |  |  |  |  |  |  |  |  | 9G
10 | CCCCCCOC(=O)c1ccccc1S(=O)(=O)NC(=O)Nc1nc(C)cc(COC)n1 [drawing 538] | 0 | 3G | 8H | 0 | 0 | 0 | 0 | 0 | 2G | 0 |  |  |  |  |  |  |  |  | 
11 | COc1nc(NC(=O)NS(=O)(=O)c2ccccc2C(=O)OC2CCCCC2)nc(OC)n1 [drawing 499] | 2G | 8G | 5G | 2C | 2G | 9G | 2C | 0 | 9H | 9C | 0 |  |  |  |  |  |  |  | 
12 | COc1nc(C)nc(NC(=O)NS(=O)(=O)c2ccccc2C(=O)OCCCl)n1 [drawing 493] | 8H |  | 9H | 9H |  | 9C |  |  |  | 9G | 9G |  |  |  |  |  |  |  | 
13 | COc1cc(OC)nc(NC(=O)NS(=O)(=O)c2ccccc2C(=O)OC2CCCCC2)n1 [drawing 498] | 5G | 8G | 9H |  | 3G | 8G | 3G | 0 | 9H | 8G | 5G |  |  |  |  |  |  |  | 
14 | CCCCCCCCCCOC(=O)c1ccccc1S(=O)(=O)NC(=O)Nc1nc(OC)cc(OC)n1 [drawing 494] | 6G | 8G | 8G | 3G | 2G | 5G | 5G | 0 |  | 9G | 5G |  |  |  |  |  |  |  | 
15 | COc1cc(C)nc(NC(=O)NS(=O)(=O)c2ccccc2C(=O)CCC(C)C)n1 [drawing 516] |  | 9H |  | 8H | 9G | 9G | 9G |  |  | 9G | 9G |  |  |  |  |  |  |  | 9G
16 | COc1nc(C)nc(NC(=O)NS(=O)(=O)c2ccccc2C(=O)OC2CCCCCCC2)n1 [drawing 523] | 7G |  | 9H | 9H | 5G |  | 8G | 5G | 9H | 9G | 7G |  |  |  |  |  |  |  | 
17 | COc1nc(C)nc(NC(=O)NS(=O)(=O)c2ccccc2C(=O)OC(C)CCl)n1 (stereo not shown) [drawing 526] |  | 9H | 9H | 9H | 4G | 9G | 8G |  |  | 9G |  |  |  |  |  |  |  |  | 9G
18 | CCCC(OC(=O)c1ccccc1S(=O)(=O)NC(=O)Nc1nc(C)nc(OC)n1)C(C)C (stereo not shown) [drawing 525] | 5G |  | 9H | 9H | 3G | 9G | 8G | 0 | 9H | 8G | 5G |  |  |  |  |  |  |  | 8G
19 | COc1nc(C)nc(NC(=O)NS(=O)(=O)c2ccccc2C(=O)OCc2ccc(Cl)cc2)n1 [drawing 527] | 4G |  | 9H | 7H | 0 | 9G | 8G |  |  | 8G | 9G |  |  |  |  |  |  |  | 
20 | COc1nc(C)nc(NC(=O)NS(=O)(=O)c2ccccc2C(=O)OC2CCCC2)n1 [drawing 512] | 4G |  | 9H | 9H | 4G | 9G | 8G | 6G | 9H | 9G | 9G |  |  |  |  |  |  |  | 
21 | CCOCCOC(=O)c1ccccc1S(=O)(=O)NC(=O)Nc1nc(Cl)cc(Cl)n1 [drawing 520] | 0 | 8G | 8H | 0 | 0 | 3G | 0 | 2G |  |  |  |  |  |  |  |  |  |  | 1C
22 | CCCCCCCCCCOC(=O)c1ccccc1S(=O)(=O)NC(=O)Nc1nc(C)cc(OC)n1 [drawing 495] |  |  | 9H |  | 8G | 8G | 7G | 0 |  | 9G | 7G |  |  |  |  |  |  |  | 
